Results as given in patent US20250186379A1, “METHODS AND AGENTS FOR DECREASING INSULIN RESISTANCE” (Whitehead Institute for Biomedical Research, priority 2021, published 2025).
“Also recorded” adds a separate entry of the source.

Columns and labels:
Assay type in all cases: cell-based, human
[1] = test system: IR condensates; experiment: Imaging of IR puncta/condensates (immunofluorescence, IR-GFP) in HepG2 cells
Protocol: For insulin sensitivity and resistance experiments in HepG2 cells, cells were washed with EMEM once and cultured in EMEM for two days. […] To wash out insulin, cells were washed in EMEM seven times, which includes three quick washes, three 5 min washes and a long 20 minute-wash in EMEM at 37° C. In order to investigate insulin response, cells were acutely treated for 5 min with insulin diluted in EMEM supplemented with 1.25% fatty acid-free BSA at 37° C. with 5% CO2 in a humidified incubator.
Metformin (SIGMA, D150959-5G) was resuspended in sterile water to a concentration of 1M and diluted to the reported concentrations in the figures in cell media. […]
HepG2 cells, human liver spheroids and human tissue liver sections were fixed in 4% PFA (VWR, BT140770-10X10) in PBS for 10 min at room temperature. Cells were washed in PBS three times for 5 min and then blocked with 4% IgG-free BSA (VWR, 102643-516) for 15-60 min at room temperature. Cells were then incubated with 1:500 primary antibody in 4% IgG-free BSA at 4° C. overnight. The next day, cells were washed three times with PBS and incubated with 1:500 secondary antibodies in 4% IgG-free BSA at room temperature for 1 hr covered in foil. Cells were washed three times with PBS for 5 min. DNA was stained using 1:5000 Hoechst in PBS for 5 min at RT. Cells were washed three times with PBS for 5 min, stored at 4° C. until imaging. For tissue sections, samples were mounted using Vectashield mounting media (Vector Laboratories, Inc, H-1000). LSM880 microscope with Airyscan detector (ZEISS) was used for image acquisition. Images were then processed using Fiji/ImageJ v2.1.0/153c.
Cells expressing endogenous IR tagged with GFP were grown on 35 mm glass bottom dishes (MatTek Corporation, P35G-1.5-20-C). Cells were imaged at 37° C. using the SM880 Microscope with Airyscan detector with 63× objective and Zen Black software (ZEISS) at the W.M. Keck Microscopy Facility, MIT. Images were then processed using Fiji/ImageJ v2.1.0/153c.
To quantify IR fluorescent signal in puncta, Fiji/ImageJ v2.1.0/153c was used. A circle or an oval was drawn around IR puncta using the oval selection tool and the average fluorescence intensity in the circle/oval (=in the puncta) was determined using the measure tool on Fiji. Background was then subtracted as previously described. To quantify IR fluorescent signal at puncta in various cellular compartments, applicant identified the location of the plasma membrane, cytoplasm, nucleus and RNA FISH spots as follows. The plasma membrane location was identified based on IR immunofluorescence signal, IR-GFP fluorescent signal or CK18 immunofluorescence signal or cell edge. The nucleus was determined by the Hoechst stain for immunofluorescence and tc-PALM experiments or by IR-GFP fluorescence when HepG2 cells expressing IR-GFP were imaged. Given the overlap between Hoechst fluorescence and GFP fluorescence, artefactual green fluorescence coming from the Hoechst confounded IR puncta identification in the nucleus. Since the differences in IR puncta intensity and concentration between cytoplasm and nucleus in HepG2 cells was clear, nuclear outline was easily drawn based on IR-GFP fluorescent signal. Cytoplasm was considered the region between the plasma membrane and the nucleus. RNA FISH spots were identified based on RNA FISH probe fluorescence. Within the FISH spot, IR intensity was measured using the measure tool.
To estimate the number of IR puncta at the plasma membrane, cytoplasm, nucleus or in entire cells, IR puncta were initially counted in a cell slice using Fiji. The number obtained from the cell slice was then multiplied based on the estimated size of the plasma membrane, cytoplasm, nucleus or entire cell, which were obtained considering the length and width of the cell under investigation and the estimated height (˜5 um). […]

[2] = test system: IR condensates; experiment: tc-PALM of IR cluster/condensate dynamics in HepG2 cells expressing IR-Dendra2; settings: insulin sensitive cells; 20 mM H2O2
Protocol: Widefield Live-cell super-resolution imaging was performed in a photo-activation localization microscopy (PALM) approach using a Nikon Eclipse Ti microscope with a 100× oil immersion objective. The 405 nm and 561 nm laser beams were combined in an external platform with customized power densities to image Dendra2-tagged molecules as previously reported (56). Cells were maintained at 37° C. in a temperature-controlled platform during imaging, and the CO2 level was maintained at 5% by Leibovitz's L-15 Medium with no phenol red (ThermoFisher #21083027). In each imaging cycle, a 2400-frame video stream including a (256 pixel)2 region of interest (ROI) was recorded in 20 Hz acquisition rate with the EM-gain setting as 1000 on an Andor iXon Ultra 897 EMCCD. Each pixel conjugates with a (160 nm)2 area on the sample side. After PALM imaging, the Hoechst-stained nuclei of the same ROI were imaged with stronger 405 nm excitation through DAPI filter.
Detection localization. For each frame of a raw image, Gaussian particles were identified by pixelwise test of hypotheses, whose peak positions were individually fitted at subpixel resolution by maximum-likelihood regression with Gauss-Newton method (91). An additional deflation loop was performed to avoid missing dimmer particles when they were overshadowed by neighboring brighter ones. This multi-particle detection localization procedure has been integrated in a published, open-source MATLAB software called MTT (91).
Spatial clustering. DBSCAN and “manual selection” hybridized approach was applied to group spatially clustered detections via the qSR software (92). Firstly, DBSCAN was performed to generalize a proposal map of spatially clustered detections. Given that IR condensates can be tiny and transient, a “loose” parameter setting was used when performing the DBSCAN (length-scale=120 nm, N_min=4). This parameter combination was determined by comparing the rendered super-resolved reconstructions with the color-coded cluster maps until the clustering results visually make sense for most ROIs. Secondly, individual clusters were manually selected based on the clustering proposal map from last step. Some custom MATLAB code was used to reconstruct the IR distribution of each ROI superposed with the corresponding nuclei image, which was further cross-compared with the corresponding cluster map to determine which region each cluster belongs to (i.e., plasma-membrane, cytoplasm, or nucleus).
Temporal clustering. For each spatial cluster, time-correlated PALM (tc-PALM) analysis was performed along the time axis to extract the truly colocalized, time-correlated multimolecule bursting events (11, 13-14). The lifetime of a burst is simply defined as the timespan from the first to the last detections. More details about the quantitative validations and statistics of tc-PALM analysis can be found in NOTES and FIG. 11.
Widefield, live-cell, super-resolution imaging was performed in a photo-activation localization microscopy (PALM) approach using a Nikon Eclipse Ti microscope with a 100× oil immersion objective. The 405 nm and 561 nm laser beams were combined in an external platform with customized power densities to image Dendra2-tagged molecules as previously reported^24. Cells were cultured on imaging dishes (MatTek, P35G-1.5-20-C) and then imaged while maintaining both the temperature at 37° C. with a temperature-controlled platform and the level of CO2 at 5% with Leibovitz's L-15 Medium with no phenol red (Thermo Fisher, 21083027). During each imaging cycle, a 2400-frame video stream including a (256 pixel)^2 region of interest (ROI) was recorded in 20 Hz acquisition rate with the EM-gain setting as 1000 on an Andor iXon Ultra 897 EMCCD. Each pixel conjugates with a (160 nm)^2 area on the sample side. After PALM imaging, the Hoechst-stained nuclei of the same ROI were imaged using a stronger 405 nm excitation through DAPI filter. […] Following a 5-minute wait, the cells were imaged for 15-20 minutes.

[3] = test system: transcriptional condensates at SMAD7; experiment: IR-GFP and SMAD7 intronic RNA FISH colocalization in HepG2 cells; settings: insulin sensitive cells; H2O2; 3 nM insulin 5 min (FIG. 6E)

Compound: OO [H2O2, reference compound]
- incorporation of IR into condensates with insulin stimulation ([1]; insulin sensitive cells, 20 mM H2O2 for 30 min): caused a reduction in the incorporation of IR into condensates with insulin stimulation
- IR condensate dynamics [2]: caused reduced IR condensate dynamics; also recorded: altered IR condensate dynamics
- IR incorporation in transcriptional condensates [3]: caused a reduction in IR incorporation in transcriptional condensates

Compound: CC(=O)N[C@@H](CS)C(=O)O [NAC, N-acetyl cysteine, reference compound]
- IR condensates defects (signal intensity and lifetime) ([1]; insulin-resistant cells, 1 mM NAC 24 hours (FIGS. 19E-19F, 40B)): partially rescued IR condensates defects
